Laboratory results as given in the NIST ThermoML archive (doi:10.1021/je0340755).

Experiment: xn = mol fraction of the nth substance listed
Conditions: 101.3 kPa, Liquid; for viscosity: Capillary tube (Ostwald / Ubbelohde) method

CC(O)CCO (stereo not given) [1,3-butanediol] + O
Conditions	mass density [kg/m3]	speed of sound [m/s]	viscosity [mPa·s]
298.15 K, x2 = 0.045	1001	1544.1	92.65
298.15 K, x2 = 0.1445	1003.36	1569.1	81.12
298.15 K, x2 = 0.2499	1006.05	1594.2	67.64
298.15 K, x2 = 0.3526	1008.62	1613.2	54.19
298.15 K, x2 = 0.4519	1011.07	1631.1	41.72
298.15 K, x2 = 0.5035	1012.39	1643.5	35.66
298.15 K, x2 = 0.5563	1013.79	1652.1	29.86
298.15 K, x2 = 0.6507	1016.24	1682	20.66
298.15 K, x2 = 0.7518	1017.77	1702	12.64
298.15 K, x2 = 0.8477	1015.59	1681.6	6.82
298.15 K, x2 = 0.9081	1010.74	1673.4	4.008
298.15 K, x2 = 0.9152	1009.95	1660.2	3.719
298.15 K, x2 = 0.9253	1008.73	1645	3.322
298.15 K, x2 = 0.9355	1007.4	1615.2	2.937
298.15 K, x2 = 0.9521	1005.03	1610.8	2.348
298.15 K, x2 = 0.9543	1004.7	1599.6	2.273
298.15 K, x2 = 0.9597	1003.86	1576.9	2.093
298.15 K, x2 = 0.9699	1002.22	1551.3	1.765
298.15 K, x2 = 0.9804	1000.46	1525.7	1.444
298.15 K, x2 = 0.9901	998.79	1519.4	1.163
298.15 K, x2 = 0.9924	998.38	1510.8	1.098
298.15 K, x2 = 0.9955	997.84	1527.6	1.012
308.15 K, x2 = 0.045	995.14	1500.6	49.94
308.15 K, x2 = 0.1445	997.4	1520.3	43.43
308.15 K, x2 = 0.2499	999.97	1538.6	36.09
308.15 K, x2 = 0.3526	1002.45	1561.8	29.07
308.15 K, x2 = 0.4519	1004.84	1585.2	22.69
308.15 K, x2 = 0.5035	1006.14	1597	19.58
308.15 K, x2 = 0.5563	1007.52	1609.3	16.57
308.15 K, x2 = 0.6507	1009.99	1634.5	11.66
308.15 K, x2 = 0.7518	1011.69	1666.3	7.207
308.15 K, x2 = 0.8477	1010.07	1684	3.905
308.15 K, x2 = 0.9081	1005.92	1665.1	2.337
308.15 K, x2 = 0.9152	1005.23	1659.9	2.179
308.15 K, x2 = 0.9253	1004.18	1657.3	1.965
308.15 K, x2 = 0.9355	1003.02	1640.7	1.759
308.15 K, x2 = 0.9521	1000.96	1619.1	1.45
308.15 K, x2 = 0.9543	1000.67	1615.8	1.411
308.15 K, x2 = 0.9597	999.94	1607.2	1.318
308.15 K, x2 = 0.9699	998.52	1589	1.15
308.15 K, x2 = 0.9804	996.99	1567.4	0.99
308.15 K, x2 = 0.9901	995.53	1544.6	0.851
308.15 K, x2 = 0.9924	995.19	1536.8	0.819
308.15 K, x2 = 0.9955	994.71	1530.7	0.778
318.15 K, x2 = 0.045	989.57	1474.8	28.95
318.15 K, x2 = 0.1445	991.66	1492.5	25.16
318.15 K, x2 = 0.2499	994.06	1509.5	20.85
318.15 K, x2 = 0.3526	996.38	1531.8	16.64
318.15 K, x2 = 0.4519	998.64	1554.7	12.79
318.15 K, x2 = 0.5035	999.86	1566.6	10.94
318.15 K, x2 = 0.5563	1001.18	1579.1	9.164
318.15 K, x2 = 0.6507	1003.55	1604.8	6.346
318.15 K, x2 = 0.7518	1005.28	1638.6	3.879
318.15 K, x2 = 0.8477	1004.06	1662.4	2.11
318.15 K, x2 = 0.9081	1000.51	1652.9	1.304
318.15 K, x2 = 0.9152	999.92	1649.3	1.226
318.15 K, x2 = 0.9253	999	1643	1.122
318.15 K, x2 = 0.9355	998	1635.1	1.024
318.15 K, x2 = 0.9521	996.21	1618.5	0.881
318.15 K, x2 = 0.9543	995.96	1616	0.864
318.15 K, x2 = 0.9597	995.33	1609.2	0.824
318.15 K, x2 = 0.9699	994.09	1594.8	0.753
318.15 K, x2 = 0.9804	992.76	1577.4	0.69
318.15 K, x2 = 0.9901	991.5	1558.9	0.639
318.15 K, x2 = 0.9924	991.2	1554.1	0.628
318.15 K, x2 = 0.9955	990.8	1547.5	0.615
328.15 K, x2 = 0.045	980.01	1456.8	17.94
328.15 K, x2 = 0.1445	982.02	1473	15.5
328.15 K, x2 = 0.2499	984.33	1489.7	12.68
328.15 K, x2 = 0.3526	986.62	1509.9	9.939
328.15 K, x2 = 0.4519	988.88	1530.8	7.454
328.15 K, x2 = 0.5035	990.12	1542.3	6.269
328.15 K, x2 = 0.5563	991.47	1554.1	5.15
328.15 K, x2 = 0.6507	993.99	1579.6	3.415
328.15 K, x2 = 0.7518	996.11	1612.2	1.97
328.15 K, x2 = 0.8477	995.8	1638.8	1.028
328.15 K, x2 = 0.9081	993.31	1635.3	0.666
328.15 K, x2 = 0.9152	992.87	1633	0.636
328.15 K, x2 = 0.9253	992.19	1628.7	0.598
328.15 K, x2 = 0.9355	991.44	1622.5	0.565
328.15 K, x2 = 0.9521	990.11	1610.6	0.525
328.15 K, x2 = 0.9543	989.92	1608.3	0.521
328.15 K, x2 = 0.9597	989.45	1603.1	0.512
328.15 K, x2 = 0.9699	988.53	1591.7	0.5
328.15 K, x2 = 0.9804	987.55	1578.7	0.495
328.15 K, x2 = 0.9901	986.62	1563.6	0.496
328.15 K, x2 = 0.9924	986.41	1559.6	0.497
328.15 K, x2 = 0.9955	986.11	1555	0.499
338.15 K, x2 = 0.045	972.67	1438.1	11.63
338.15 K, x2 = 0.1445	974.54	1452.7	9.961
338.15 K, x2 = 0.2499	976.7	1468.1	8.015
338.15 K, x2 = 0.3526	978.84	1486.2	6.116
338.15 K, x2 = 0.4519	980.99	1506.1	4.415
338.15 K, x2 = 0.5035	982.18	1516.1	3.616
338.15 K, x2 = 0.5563	983.48	1527.9	2.874
338.15 K, x2 = 0.6507	985.94	1552	1.759
338.15 K, x2 = 0.7518	988.14	1584.1	0.895
338.15 K, x2 = 0.8477	988.28	1611.3	0.418
338.15 K, x2 = 0.9081	986.44	1614.1	0.302
338.15 K, x2 = 0.9152	986.1	1612.4	0.299
338.15 K, x2 = 0.9253	985.58	1609.7	0.298
338.15 K, x2 = 0.9355	985	1606.3	0.301
338.15 K, x2 = 0.9521	983.95	1597.7	0.317
338.15 K, x2 = 0.9543	983.8	1596.6	0.32
338.15 K, x2 = 0.9597	983.44	1592.9	0.329
338.15 K, x2 = 0.9699	982.72	1585.4	0.348
338.15 K, x2 = 0.9804	981.96	1575.5	0.374
338.15 K, x2 = 0.9901	981.25	1565.5	0.403
338.15 K, x2 = 0.9924	981.09	1561.7	0.411
338.15 K, x2 = 0.9955	980.87	1558.4	0.422
